{"source": "paper PMC4262413", "about": "“Importance of Tryptophan in Transforming an Amphipathic Peptide into a Pseudomonas aeruginosa-Targeted Antimicrobial Peptide” (PLoS ONE, 2014)", "key": {"S. aureus 29213": {"system": "S. aureus 29213", "assay": "microbe, parasite or virus in culture", "format": "cell-based, Staphylococcus aureus", "description": "(§1) Minimal inhibitory concentration (MIC) assays were performed as described previously. Briefly, after incubation overnight in Mueller-Hinton (MH) broth at 37°C, the bacteria were grown to exponential growth phase and diluted to approximately 1×10^5 CFU/ml. The peptides were dissolved in 0.2% bovine serum albumin (BSA) containing 0.01% (v/v) acetic acid, and they were then added to each well of a 96-well plates at a final concentration ranging from 0.25 to 128 µM. Each well contained a total volume of 100 µL (50 µL of inoculums and 50 µL of peptide-containing solution). The MICs were determined as the lowest concentration of peptide that prevented visible turbidity by visual inspection after incubation at 37°C for 16–18 h. Independent experiments were carried out at least three times. Uninoculated MH broth was used as a negative control and cultures without added peptides served as the positive control. Minimal bactericidal concentration (MBC) assay was performed following MIC assay. At the end of MIC assay 10 µL aliquots of the medium were taken from peptide-containing wells with no visible bacterial growth. These are plated on MH agar, incubated for 18 h to allow colony growth. The MBC was defined as the lowest peptide concentration resulting in no bacterial growth in the media. Each assay was performed at least three times."}, "P. auruginosa 21625": {"system": "P. auruginosa 21625", "assay": "microbe, parasite or virus in culture", "format": "cell-based, Pseudomonas aeruginosa", "description": "as §1"}, "P. aeruginosa 27853": {"system": "P. aeruginosa 27853", "assay": "microbe, parasite or virus in culture", "format": "cell-based, Pseudomonas aeruginosa", "description": "as §1"}, "P. auruginosa 10419": {"system": "P. auruginosa 10419", "assay": "microbe, parasite or virus in culture", "format": "cell-based, Pseudomonas aeruginosa", "description": "as §1"}, "P. auruginosa 21630": {"system": "P. auruginosa 21630", "assay": "microbe, parasite or virus in culture", "format": "cell-based, Pseudomonas aeruginosa", "description": "as §1"}, "P. auruginosa LC": {"system": "P. auruginosa LC", "assay": "microbe, parasite or virus in culture", "format": "cell-based, Pseudomonas aeruginosa", "description": "as §1"}, "E. coli 25922": {"system": "E. coli 25922", "assay": "microbe, parasite or virus in culture", "format": "cell-based, Escherichia coli", "description": "as §1"}, "S. typhimurium 7731": {"system": "S. typhimurium 7731", "assay": "microbe, parasite or virus in culture", "format": "cell-based, Salmonella typhimurium", "description": "as §1"}, "S. epidermidis 12228": {"system": "S. epidermidis 12228", "assay": "microbe, parasite or virus in culture", "format": "cell-based, Staphyfococcus epidermidis", "description": "as §1"}, "[1]": {"system": "P. auruginosa LCCE (ceftazidime-resistant strain)", "assay": "microbe, parasite or virus in culture", "description": "as §1\n(§2) The antimicrobial activity of the RI16 and mutant peptides against Gram-negative and Gram-positive bacteria were determined."}, "[2]": {"system": "P. auruginosa LCCI (ciprofloxacin-resistant strain)", "assay": "microbe, parasite or virus in culture", "description": "as §1, §2"}, "[3]": {"system": "P. auruginosa LCGE (gentamincin-resistant strain)", "assay": "microbe, parasite or virus in culture", "description": "as §1, §2"}, "Female KM mice": {"system": "Female KM mice", "assay": "In vivo toxicity", "parameters": "species or system Chinese Kun Ming (KM) mice", "conditions": "intraperitoneal injection, 3, 6, 30 or 60 mg per kg of body weight, 10/group", "description": "The in vivo toxicity of the peptide was also evaluated. Female KM mice (weighing 20 to 25 g) were injected intraperitoneally with 0.1 ml saline and 3, 6, 30, and 60 mg peptide per kg of body weight. The animals (10/group) were directly inspected for adverse effects, such as weight loss, piloerection, motility and mortality for 7 days thereafter. All mice were allowed free water and a maintenance diet in a 12-hour light/dark cycle. All cages contained wood shavings and bedding. The experiment was carried out in strict accordance with the recommendations of the Guide for the Care and Use of Laboratory Animals of Northeast Agricultural University, and the study protocol was approved by Northeast Agricultural University Institutional Animal Care and Use Committee. The mice were monitored for a week and no mice died during the experiment."}, "[4]": {"system": "P. aeruginosa ATCC27853 biofilms", "assay": "Biofilm biomass assay and FE-SEM imaging", "format": "cell-based, Pseudomonas aeruginosa", "description": "A static abiotic solid surface assay was used to analyze biofilm formation as described before, with minor modification. Briefly, overnight cultures of P. aeruginosa ATCC27853 were diluted 1∶100 in fresh medium, added (500 µL) to wells of 12-well culture plates, and grown for 24 h at 37°C. Planktonic cells and loosely attached cells were removed, and wells were then refilled with 500 µL of fresh broth in the absence or presence of different concentrations of peptides. After incubation the biofilms were stained with 0.1% (w/v) crystal violet. Ethanol (95%, v/v) was added to each well, and absorbance was measured at 600 nm. The experiments were done at least three times in duplicate, and the data was expressed as mean ± standard deviations.\nFor microscopic observation of the biofilm, sterilized coverslips were placed at the bottom of a 12-well plate. After incubation, cells were fixed with 2.5% glutaraldehyde overnight. The samples were then dehydrated through a graded series of ethanol (50%, 70%, 90%, and 100%), followed by critical–point drying, gold sputtering, and examination using an FE-SEM (Hitachi, Japan)."}}, "note": "Residues, ends and D or L forms follow the SMILES beside them."}
{"compound": "CC[C@H](C)[C@H](NC(=O)[C@H](CCCCN)NC(=O)[C@H](CCCCN)NC(=O)[C@H](CC(C)C)NC(=O)[C@H](CCCNC(=N)N)NC(=O)[C@H](CCCCN)NC(=O)[C@H](CCCNC(=N)N)NC(=O)[C@H](Cc1c[nH]c2ccccc12)NC(=O)[C@H](CCCCN)NC(=O)[C@H](CCCCN)NC(=O)[C@H](CCCNC(=N)N)NC(=O)[C@H](CC(C)C)NC(=O)[C@H](CCCNC(=N)N)NC(=O)[C@H](CCCNC(=N)N)NC(=O)[C@H](Cc1ccccc1)NC(=O)[C@@H](N)CCCNC(=N)N)C(N)=O", "note": "[T9W] (H-RFRRLRKKWRKRLKKI-NH2)", "values": [{"measurement": "MIC", "setting": "S. aureus 29213; 29213", "result": 128, "unit": "µM"}, {"measurement": "MBC", "setting": "S. aureus 29213; 29213, 18 h", "result": ">128", "unit": "µM"}, {"measurement": "MIC", "setting": "P. auruginosa 21625", "result": 4, "unit": "µM"}, {"measurement": "MBC", "setting": "P. auruginosa 21625; 18 h", "result": 4, "unit": "µM"}, {"measurement": "MIC", "setting": "P. aeruginosa 27853; 27853", "result": 2, "unit": "µM"}, {"measurement": "MBC", "setting": "P. aeruginosa 27853; 27853, 18 h", "result": 2, "unit": "µM"}, {"measurement": "MIC", "setting": "P. auruginosa 10419", "result": 4, "unit": "µM"}, {"measurement": "MBC", "setting": "P. auruginosa 10419; 18 h", "result": 4, "unit": "µM"}, {"measurement": "MIC", "setting": "P. auruginosa 21630", "result": 4, "unit": "µM"}, {"measurement": "MBC", "setting": "P. auruginosa 21630; 18 h", "result": 4, "unit": "µM"}, {"measurement": "MIC", "setting": "P. auruginosa LC", "result": 1, "unit": "µM"}, {"measurement": "MBC", "setting": "P. auruginosa LC; 18 h", "result": 2, "unit": "µM"}, {"measurement": "MIC", "setting": "E. coli 25922; 25922", "result": 64, "unit": "µM"}, {"measurement": "MBC", "setting": "E. coli 25922; 25922, 18 h", "result": ">128", "unit": "µM"}, {"measurement": "MIC", "setting": "S. typhimurium 7731; 7731", "result": 128, "unit": "µM"}, {"measurement": "MBC", "setting": "S. typhimurium 7731; 7731, 18 h", "result": ">128", "unit": "µM"}, {"measurement": "MIC", "setting": "S. epidermidis 12228; 12228", "result": 64, "unit": "µM"}, {"measurement": "MBC", "setting": "S. epidermidis 12228; 12228, 18 h", "result": ">128", "unit": "µM"}, {"measurement": "MIC", "setting": "[1]", "result": 4, "unit": "µM"}, {"measurement": "MBC", "setting": "[1]; 18 h", "result": 8, "unit": "µM"}, {"measurement": "MIC", "setting": "[2]", "result": 2, "unit": "µM"}, {"measurement": "MBC", "setting": "[2]; 18 h", "result": 4, "unit": "µM"}, {"measurement": "MIC", "setting": "[3]", "result": 4, "unit": "µM"}, {"measurement": "MBC", "setting": "[3]; 18 h", "result": 8, "unit": "µM"}, {"measurement": "Signs of toxicity (weight loss, piloerection, motility)", "setting": "Female KM mice; 7 days, data not shown", "result": "no signs of toxicity"}, {"measurement": "Survival", "setting": "Female KM mice; at least 7 days", "result": "all survived"}]}
{"compound": "LL37: the only host defense peptide encoded by the human cathelicidin gene, which eliminates bacteria by targeting membranes (LLGDFFRKSKEKIGKEFKRIVQRIKDFLRNLVPRTES; Antibacterial peptide LL-37; UniProt P49913 134-170, looked up)", "values": [{"measurement": "Biofilm biomass of pre-formed biofilms", "setting": "[4]; P. aeruginosa 27853, 24 h treatment, various concentrations, crystal violet, absorbance 600 nm, relative to untreated control, Fig. 6A", "result": "reduced"}, {"measurement": "Cell densities in the biofilms (FE-SEM)", "setting": "[4]; P. aeruginosa 27853 biofilms, peptides at 4×MIC, Fig. 6B", "result": "significantly reduced"}]}
